According to PubChem BioAssay AID1918939 (Molecular Pharmacology Branch, DTP, NCI, 2023):

Tested on: 653999-131-R-J2-PDC complex spheroid viability
Assay: Anticancer human tumor 653999-131-R-J2-PDC patient-derived lung adenocarcinoma cell line growth inhibition
Conditions: for IC50: curve of first compound; for viability, T/C: stronger effect = lower value
How it was run: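 Multicellular complex spheroids of tumor cells with human endothelial cells (HUVEC) and mesenchymal stem cells; the LSD1 inhibitor iadademstat was combined with standard-of-care or investigational agents. Top concentration at or near clinical Cmax, half-log dilutions; final DMSO ≤0.25%.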

[1] = second compound 0.1 µM, first compound 0.00316 µM
[2] = second compound 0.1 µM, first compound 0.01 µM
[3] = second compound 0.1 µM, first compound 0.0316 µM
[4] = second compound 0.1 µM, first compound 0.1 µM
[5] = second compound 0.316 µM, first compound 0.00316 µM
[6] = second compound 0.316 µM, first compound 0.01 µM
[7] = second compound 0.316 µM, first compound 0.0316 µM
[8] = second compound 0.316 µM, first compound 0.1 µM
[9] = second compound 1 µM, first compound 0.00316 µM
[10] = second compound 1 µM, first compound 0.01 µM
[11] = second compound 1 µM, first compound 0.0316 µM
[12] = second compound 1 µM, first compound 0.1 µM
[13] = second compound 3.16 µM, first compound 0.00316 µM
[14] = second compound 3.16 µM, first compound 0.01 µM
[15] = second compound 3.16 µM, first compound 0.0316 µM
[16] = second compound 3.16 µM, first compound 0.1 µM
[17] = second compound 10 µM, first compound 0.00316 µM
[18] = second compound 10 µM, first compound 0.01 µM
[19] = second compound 10 µM, first compound 0.0316 µM
[20] = second compound 10 µM, first compound 0.1 µM
[21] = second compound 0.1 µM, first compound 0.00949 µM
[22] = second compound 0.1 µM, first compound 0.03 µM
[23] = second compound 0.1 µM, first compound 0.0949 µM
[24] = second compound 0.1 µM, first compound 0.3 µM
[25] = second compound 0.1 µM, first compound 0.949 µM
[26] = second compound 0.1 µM, first compound 3 µM
[27] = second compound 0.316 µM, first compound 0.00949 µM
[28] = second compound 0.316 µM, first compound 0.03 µM
[29] = second compound 0.316 µM, first compound 0.0949 µM
[30] = second compound 0.316 µM, first compound 0.3 µM
[31] = second compound 0.316 µM, first compound 0.949 µM
[32] = second compound 0.316 µM, first compound 3 µM
[33] = second compound 1 µM, first compound 0.00949 µM
[34] = second compound 1 µM, first compound 0.03 µM
[35] = second compound 1 µM, first compound 0.0949 µM
[36] = second compound 1 µM, first compound 0.3 µM
[37] = second compound 1 µM, first compound 0.949 µM
[38] = second compound 1 µM, first compound 3 µM
[39] = second compound 3.16 µM, first compound 0.00949 µM
[40] = second compound 3.16 µM, first compound 0.03 µM
[41] = second compound 3.16 µM, first compound 0.0949 µM
[42] = second compound 3.16 µM, first compound 0.3 µM
[43] = second compound 3.16 µM, first compound 0.949 µM
[44] = second compound 3.16 µM, first compound 3 µM
[45] = second compound 10 µM, first compound 0.00949 µM
[46] = second compound 10 µM, first compound 0.03 µM
[47] = second compound 10 µM, first compound 0.0949 µM
[48] = second compound 10 µM, first compound 0.3 µM
[49] = second compound 10 µM, first compound 0.949 µM
[50] = second compound 10 µM, first compound 3 µM
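Note: spheroids exposed to agents for seven days before readout.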

COc1cc(Nc2ncc3c(n2)-c2ccc(Cl)cc2C(c2c(F)cccc2OC)=NC3)ccc1C(=O)O + NC1CCC(NC2CC2c2ccccc2)CC1
IC50 (second compound 0.1 µM): > 1000 nM | IC50 (second compound 0.316 µM): > 1000 nM | IC50 (second compound 1 µM): > 1000 nM | IC50 (second compound 3.16 µM): > 1000 nM | IC50 (second compound 10 µM): > 1000 nM | viability, T/C [1]: 78.7% | viability, T/C [2]: 89.2% | viability, T/C [3]: 74.2% | viability, T/C [4]: 78.5% | viability, T/C (second compound 0.1 µM, first compound 0.316 µM): 73.7% | viability, T/C (second compound 0.1 µM, first compound 1 µM): 76.1% | viability, T/C [5]: 85.4% | viability, T/C [6]: 72.8% | viability, T/C [7]: 63.9% | viability, T/C [8]: 68.1% | viability, T/C (second compound 0.316 µM, first compound 0.316 µM): 71.3% | viability, T/C (second compound 0.316 µM, first compound 1 µM): 75.6% | viability, T/C [9]: 76.6% | viability, T/C [10]: 84.3% | viability, T/C [11]: 78.6% | viability, T/C [12]: 69.2% | viability, T/C (second compound 1 µM, first compound 0.316 µM): 61.9% | viability, T/C (second compound 1 µM, first compound 1 µM): 74.9% | viability, T/C [13]: 92.2% | viability, T/C [14]: 73.9% | viability, T/C [15]: 79.2% | viability, T/C [16]: 65.6% | viability, T/C (second compound 3.16 µM, first compound 0.316 µM): 79.7% | viability, T/C (second compound 3.16 µM, first compound 1 µM): 72% | viability, T/C [17]: 92.9% | viability, T/C [18]: 81.4% | viability, T/C [19]: 71.7% | viability, T/C [20]: 71.2% | viability, T/C (second compound 10 µM, first compound 0.316 µM): 60.9% | viability, T/C (second compound 10 µM, first compound 1 µM): 79.7%

Cn1ncnc1C1c2n[nH]c(=O)c3cc(F)cc(c23)NC1c1ccc(F)cc1 (stereo not given) + NC1CCC(NC2CC2c2ccccc2)CC1
IC50 (second compound 0.1 µM): > 100 nM | IC50 (second compound 0.316 µM): > 100 nM | IC50 (second compound 1 µM): > 100 nM | IC50 (second compound 3.16 µM): > 100 nM | IC50 (second compound 10 µM): > 100 nM | viability, T/C (second compound 0.1 µM, first compound 0.000316 µM): 86.9% | viability, T/C (second compound 0.1 µM, first compound 0.001 µM): 86.9% | viability, T/C [1]: 85.6% | viability, T/C [2]: 73% | viability, T/C [3]: 80.9% | viability, T/C [4]: 71.4% | viability, T/C (second compound 0.316 µM, first compound 0.000316 µM): 85.4% | viability, T/C (second compound 0.316 µM, first compound 0.001 µM): 82.5% | viability, T/C [5]: 82.1% | viability, T/C [6]: 87.2% | viability, T/C [7]: 73.9% | viability, T/C [8]: 86% | viability, T/C (second compound 1 µM, first compound 0.000316 µM): 95.6% | viability, T/C (second compound 1 µM, first compound 0.001 µM): 81.3% | viability, T/C [9]: 82.9% | viability, T/C [10]: 74.9% | viability, T/C [11]: 75.9% | viability, T/C [12]: 78.1% | viability, T/C (second compound 3.16 µM, first compound 0.000316 µM): 94.6% | viability, T/C (second compound 3.16 µM, first compound 0.001 µM): 91.8% | viability, T/C [13]: 91.1% | viability, T/C [14]: 87.3% | viability, T/C [15]: 76.7% | viability, T/C [16]: 72.1% | viability, T/C (second compound 10 µM, first compound 0.000316 µM): 96.9% | viability, T/C (second compound 10 µM, first compound 0.001 µM): 99.4% | viability, T/C [17]: 97.6% | viability, T/C [18]: 84.5% | viability, T/C [19]: 72% | viability, T/C [20]: 78.2%

NS(=O)(=O)OCC1CC(n2ccc3c(NC4CCc5ccccc54)ncnc32)CC1O (stereo not given) + NC1CCC(NC2CC2c2ccccc2)CC1
IC50 (second compound 0.1 µM): > 3000 nM | IC50 (second compound 0.316 µM): > 3000 nM | IC50 (second compound 1 µM): > 3000 nM | IC50 (second compound 3.16 µM): > 3000 nM | IC50 (second compound 10 µM): > 3000 nM | viability, T/C [21]: 97.5% | viability, T/C [22]: 80.8% | viability, T/C [23]: 106% | viability, T/C [24]: 107% | viability, T/C [25]: 54.7% | viability, T/C [26]: 61.1% | viability, T/C [27]: 97.8% | viability, T/C [28]: 81.6% | viability, T/C [29]: 105% | viability, T/C [30]: 114% | viability, T/C [31]: 55.6% | viability, T/C [32]: 50.7% | viability, T/C [33]: 94.4% | viability, T/C [34]: 92.8% | viability, T/C [35]: 91.2% | viability, T/C [36]: 116% | viability, T/C [37]: 60.5% | viability, T/C [38]: 56.2% | viability, T/C [39]: 105% | viability, T/C [40]: 98.7% | viability, T/C [41]: 100% | viability, T/C [42]: 105% | viability, T/C [43]: 58.6% | viability, T/C [44]: 59.2% | viability, T/C [45]: 116% | viability, T/C [46]: 101% | viability, T/C [47]: 105% | viability, T/C [48]: 118% | viability, T/C [49]: 63.7% | viability, T/C [50]: 54.2%

O=C(C=Cc1cccc(S(=O)(=O)Nc2ccccc2)c1)NO + NC1CCC(NC2CC2c2ccccc2)CC1
IC50 (second compound 0.1 µM): 435 nM | IC50 (second compound 0.316 µM): 538 nM | IC50 (second compound 1 µM): 513 nM | IC50 (second compound 3.16 µM): 501 nM | IC50 (second compound 10 µM): 449 nM | viability, T/C [21]: 81.9% | viability, T/C [22]: 97.9% | viability, T/C [23]: 108% | viability, T/C [24]: 56.1% | viability, T/C [25]: 28.6% | viability, T/C [26]: 3.54% | viability, T/C [27]: 89.3% | viability, T/C [28]: 82.6% | viability, T/C [29]: 91.4% | viability, T/C [30]: 70.3% | viability, T/C [31]: 29.3% | viability, T/C [32]: 3.12% | viability, T/C [33]: 96.4% | viability, T/C [34]: 100% | viability, T/C [35]: 88.3% | viability, T/C [36]: 71.6% | viability, T/C [37]: 26.2% | viability, T/C [38]: 2.35% | viability, T/C [39]: 98.4% | viability, T/C [40]: 83.1% | viability, T/C [41]: 92.4% | viability, T/C [42]: 61.9% | viability, T/C [43]: 32.3% | viability, T/C [44]: 2.77% | viability, T/C [45]: 95.4% | viability, T/C [46]: 96% | viability, T/C [47]: 101% | viability, T/C [48]: 60.3% | viability, T/C [49]: 25.8% | viability, T/C [50]: 3.12%
